In this experiment the target is laccase (CotA) (Bacillus sp. HR03, UniProt B9W2C5). Briefly: biochemical.

Kd data for one compound are collected here from PMC11192927, “The potential of a novel enzyme-based surface plasmon resonance biosensor for direct detection of dopamine” (Scientific Reports, 2024).

SMILES strings stand for the structures.

Sequence of laccase (CotA) (B9W2C5 1-513): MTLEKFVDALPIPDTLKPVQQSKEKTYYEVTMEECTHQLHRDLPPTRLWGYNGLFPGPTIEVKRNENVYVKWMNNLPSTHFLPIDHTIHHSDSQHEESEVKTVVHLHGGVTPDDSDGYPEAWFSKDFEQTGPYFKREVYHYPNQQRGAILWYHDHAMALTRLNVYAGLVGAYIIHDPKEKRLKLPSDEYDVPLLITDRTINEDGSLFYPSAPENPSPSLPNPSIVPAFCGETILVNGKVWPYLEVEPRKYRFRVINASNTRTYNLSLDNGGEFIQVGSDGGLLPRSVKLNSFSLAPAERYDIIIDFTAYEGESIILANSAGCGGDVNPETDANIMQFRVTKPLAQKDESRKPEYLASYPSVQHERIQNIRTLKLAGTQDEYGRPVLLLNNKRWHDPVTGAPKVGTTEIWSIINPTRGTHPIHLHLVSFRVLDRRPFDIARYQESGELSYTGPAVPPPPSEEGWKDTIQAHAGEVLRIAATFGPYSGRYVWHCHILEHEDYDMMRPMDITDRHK

As to `NCCc1ccc(O)c(O)c1` [dopamine], the Kd was found to be 48.5 nM.

As usually defined, the Kd is the free concentration of one partner at which half of the binding sites on the other are occupied at equilibrium, for simple one-to-one binding.
